In paper PMC10458471, “Electrophysiological Assessment of Newly Synthesized 2,3-Benzodiazepine Derivatives for Inhibiting the AMPA Receptor Channel” (Molecules, 2023):
Where two headings read alike, the source gives them in different places.

How the values were obtained:
GluA1 = target: T1, GluA1 (Rattus norvegicus, UniProt P19490); assay: Whole-cell patch-clamp recording of homomeric GluA1 AMPAR expressed in HEK293T cells; type: cell-based
T1 construct: expressed in transfected cells; host or cells: HEK293T
Protocol: (§1) For the DNA preparation, the QIAGEN Plasmid Mini Kit was used to prepare up to 20 µg of high-copy plasmid DNA [30]. All AMPAR subunits utilized in this study included the flip isoform received from S. F. Heinemann (Salk Institute, La Jolla, CA, USA) and sub-cloned in pRK for expression in Human Embryonic Kidney Cells 293 (HEK293T). The human embryonic kidney (HEK293T) cells were obtained from Sigma, Taufkirchen, Germany, and we only used the HEK293T cell line due to their ease of growth and transfection and wide utilization in cell culture. For the transfection, we used the constructs GluA1, GluA2, GluA2/3, and GluA1/2, along with the GFP-expressing construct, as described in our previous work. The transfection reagents utilized were jetPRIME (Polyplus: New York, NY, USA) or Lipofectamine 2000 (Invitrogen; San Diego, CA, USA). The highly fluorescent cells were identified and selected for recording. The selected cells were seeded in Dulbecco Modified Eagle Medium (DMEM) (Sigma, Roedermark, Germany) containing 10% FBS, 0.1 mg/mL streptomycin, and 1 mM sodium pyruvate (Biological Industries; Beit-Haemek, Israel). The cells were incubated at 37 °C with 5% CO2 added to the medium and subcultured twice a week until they reached passage #20. Following a day and a half, the cells were replated on coverslips covered with Laminin (1 mg/mL; Sigma, Roedermark, Germany) for electrophysiological recordings. Our previous work has detailed the DNA preparation, cDNA transient transfection, and cell culture of HEK293T [30, 31, 32, 33].
(§2) After that, a patch was placed in front of a rapid perfusion system comprised of a theta tube flow pipe mounted on a piezoelectric translator that was used to wash the cell continuously from one barrel while the other supplied the compound of interest to the cell. Recordings were conducted 36–48 h after transfection at 22 °C, with a membrane potential of −60 mV. Currents were amplified using an integrated patch amplifier (IPA, Sutter Instruments, Novato, CA, USA), filtered at 2 kHz, and digitized at 10 kHz using SutterPatch Software v. 1.1.1 [46]. […] The extracellular medium contained (in mM): 150 NaCl, 2.8 KCl, 0.5 MgCl2, 2 CaCl2, and 10 HEPES, pH 7.4 adjusted with NaOH. The holding potential was typically −60 mV. The sample size was determined to be eight viable cells to calculate the mean inhibition of the derivative of interest. The solution exchange time (10–90% to peak) was estimated at […] using open-tip control at the end of a recording. Inhibition was calculated by comparing the current observed when the cell was supplied with glutamate alone and when the same cell was supplied with both glutamate and the 2,3-BDZ compounds. The initial tube containing only glutamate was reintroduced to the cell to ensure cellular safety and authenticate the antagonist’s findings. This step ensured that the glutamate-induced current observed before the administration of the antagonist was nearly indistinguishable from the current observed after administration.
(§3) The experiment served two purposes: first, determining the whole-cell current amplitude ratio in the absence and presence of the compounds (A/AI) to derive a constant inhibitory value independent of the rate measurement. Second, as an independent control method, a fast exchange solution flow methodology was employed using piezoelectric actuators, providing the fastest exchange solution with open-tip current rise times in the 100–300 μs range to assess the amplitude of the whole-cell current. Detailed data analysis of this process is provided in the supporting information (Tables S1–S4).
(§4) The data acquired were analyzed using Igor Pro7 (Wave Metrics, Inc., Portland, OR, USA). Receptor desensitization (τw des) and deactivation rates were estimated by fitting the current decay starting from 95% of the peak to the baseline current using a double exponential formulation. […]

GluA2/3 = target: T2, GluA2/3 (Rattus norvegicus, UniProt P19491+P19492); assay: Whole-cell patch-clamp recording of heteromeric GluA2/3 AMPAR expressed in HEK293T cells; type: cell-based
T2 construct: expressed in transfected cells; host or cells: HEK293T
Protocol: as §1, §2, §3, §4

AMPA receptor subunits = assay: Whole-cell patch-clamp recording, statements over all tested AMPAR subunits (GluA1, GluA1/2, GluA2, GluA2/3) in HEK293T cells; type: cell-based; settings: 16 µM compound
Protocol: as §1, §2, §3, §4

GluA2 = target: T3, GluA2 (Rattus norvegicus, UniProt P19491); assay: Whole-cell patch-clamp recording of homomeric GluA2 AMPAR expressed in HEK293T cells; type: cell-based
T3 construct: expressed in transfected cells; host or cells: HEK293T
Protocol: as §1, §2, §3, §4

GluA1/2 = target: T4, GluA1/2 (Rattus norvegicus, UniProt P19490+P19491); assay: Whole-cell patch-clamp recording of heteromeric GluA1/2 AMPAR expressed in HEK293T cells; type: cell-based
T4 construct: expressed in transfected cells; host or cells: HEK293T
Protocol: as §1, §2, §3, §4

[1] = 10 mM glutamate + 16 µM compound, -60 mV, pH 7.4, 22 °C, mean±SEM, n=8
[2] = 10 mM glutamate, 16 µM compound, n=8
[3] = 1 ms 10 mM glutamate + 16 µM compound, n=8
[4] = 500 ms 10 mM glutamate + 16 µM compound, n=8
[5] = log of IC50, read-out: Log IC50 (converted)
[6] = normalized peak current, -60 mV, pH 7.4, 22 °C, read-out: IC50
[7] = washout/recovery, glutamate alone after compound, n=8

T1 sequence (P19490 19-907 isoform P19490-2 limits assumed): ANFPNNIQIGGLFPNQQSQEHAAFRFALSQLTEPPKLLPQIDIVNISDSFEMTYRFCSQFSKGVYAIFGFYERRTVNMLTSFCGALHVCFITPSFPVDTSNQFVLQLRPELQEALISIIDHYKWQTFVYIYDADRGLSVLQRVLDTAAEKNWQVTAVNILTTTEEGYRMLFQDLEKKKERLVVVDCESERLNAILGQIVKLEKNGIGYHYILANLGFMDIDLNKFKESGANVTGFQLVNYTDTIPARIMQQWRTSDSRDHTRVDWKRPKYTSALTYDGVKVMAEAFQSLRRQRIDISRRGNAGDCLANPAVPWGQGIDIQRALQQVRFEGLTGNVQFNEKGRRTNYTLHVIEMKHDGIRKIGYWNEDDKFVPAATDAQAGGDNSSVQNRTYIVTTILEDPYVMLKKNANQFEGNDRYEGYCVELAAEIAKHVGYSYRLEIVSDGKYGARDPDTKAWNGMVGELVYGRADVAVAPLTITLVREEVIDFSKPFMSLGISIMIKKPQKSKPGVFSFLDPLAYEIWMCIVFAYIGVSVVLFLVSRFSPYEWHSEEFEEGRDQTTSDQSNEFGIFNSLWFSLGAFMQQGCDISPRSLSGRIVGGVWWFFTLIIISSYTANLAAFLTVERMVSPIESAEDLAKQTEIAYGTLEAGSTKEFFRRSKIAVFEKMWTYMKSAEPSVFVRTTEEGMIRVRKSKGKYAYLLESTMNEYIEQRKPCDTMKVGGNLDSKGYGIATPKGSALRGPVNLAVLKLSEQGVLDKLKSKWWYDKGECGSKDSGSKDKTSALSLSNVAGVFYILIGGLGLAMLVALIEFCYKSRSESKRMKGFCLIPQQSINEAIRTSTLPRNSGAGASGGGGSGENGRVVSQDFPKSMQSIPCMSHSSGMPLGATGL
T4 sequence (P19490 19-907 isoform P19490-2 limits assumed): as above
T4 sequence (P19491 22-883 isoform P19491-2 limits assumed): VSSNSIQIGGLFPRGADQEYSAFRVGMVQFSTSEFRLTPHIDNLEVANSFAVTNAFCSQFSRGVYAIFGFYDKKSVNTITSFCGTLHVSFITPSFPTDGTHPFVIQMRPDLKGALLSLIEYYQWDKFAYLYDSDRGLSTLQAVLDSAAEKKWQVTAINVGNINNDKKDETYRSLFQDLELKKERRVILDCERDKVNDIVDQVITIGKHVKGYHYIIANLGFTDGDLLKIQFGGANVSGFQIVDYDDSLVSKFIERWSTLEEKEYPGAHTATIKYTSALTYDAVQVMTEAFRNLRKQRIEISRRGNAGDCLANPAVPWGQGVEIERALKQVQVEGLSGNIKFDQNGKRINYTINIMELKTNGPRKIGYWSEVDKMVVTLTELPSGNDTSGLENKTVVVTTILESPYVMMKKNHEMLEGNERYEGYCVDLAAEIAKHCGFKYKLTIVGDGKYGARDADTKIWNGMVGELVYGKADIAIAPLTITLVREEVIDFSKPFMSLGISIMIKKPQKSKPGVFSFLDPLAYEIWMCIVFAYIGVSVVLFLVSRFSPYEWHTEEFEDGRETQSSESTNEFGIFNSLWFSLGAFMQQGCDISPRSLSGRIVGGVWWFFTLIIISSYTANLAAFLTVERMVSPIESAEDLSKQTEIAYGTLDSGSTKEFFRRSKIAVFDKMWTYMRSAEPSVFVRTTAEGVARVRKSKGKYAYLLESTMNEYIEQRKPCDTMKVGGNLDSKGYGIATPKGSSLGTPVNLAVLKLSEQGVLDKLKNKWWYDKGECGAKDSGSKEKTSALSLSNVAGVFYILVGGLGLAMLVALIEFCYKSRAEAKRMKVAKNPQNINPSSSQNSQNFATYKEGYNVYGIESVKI
T2 sequence (P19491 22-883 isoform P19491-2 limits assumed): as above
T2 sequence (P19492 23-888 isoform P19492-2 limits assumed): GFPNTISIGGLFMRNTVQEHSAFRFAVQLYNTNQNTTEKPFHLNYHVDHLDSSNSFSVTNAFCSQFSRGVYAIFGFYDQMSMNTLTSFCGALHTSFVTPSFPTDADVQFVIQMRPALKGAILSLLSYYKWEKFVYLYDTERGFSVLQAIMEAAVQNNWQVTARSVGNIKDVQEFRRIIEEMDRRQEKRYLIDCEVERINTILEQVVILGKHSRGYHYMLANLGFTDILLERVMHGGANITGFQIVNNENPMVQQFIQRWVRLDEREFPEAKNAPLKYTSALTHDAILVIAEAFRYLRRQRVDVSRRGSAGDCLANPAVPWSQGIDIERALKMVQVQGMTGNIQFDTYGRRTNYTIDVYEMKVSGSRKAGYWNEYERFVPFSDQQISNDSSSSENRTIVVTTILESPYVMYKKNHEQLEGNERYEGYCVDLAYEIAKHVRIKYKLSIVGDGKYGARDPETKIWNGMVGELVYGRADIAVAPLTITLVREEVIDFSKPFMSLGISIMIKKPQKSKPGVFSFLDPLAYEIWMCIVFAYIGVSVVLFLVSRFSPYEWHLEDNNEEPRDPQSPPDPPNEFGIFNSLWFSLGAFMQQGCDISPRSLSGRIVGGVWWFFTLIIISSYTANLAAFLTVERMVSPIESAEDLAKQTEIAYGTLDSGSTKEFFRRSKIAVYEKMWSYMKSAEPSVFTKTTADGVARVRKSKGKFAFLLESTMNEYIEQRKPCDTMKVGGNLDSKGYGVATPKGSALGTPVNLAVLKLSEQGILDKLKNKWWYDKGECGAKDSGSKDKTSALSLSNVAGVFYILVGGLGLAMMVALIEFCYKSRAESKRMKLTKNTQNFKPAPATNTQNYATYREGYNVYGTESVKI
T3 sequence (P19491 22-883 isoform P19491-2 limits assumed): as the sequence (P19491 22-883 isoform P19491-2 limits assumed) above

SMILES: O=C1Cc2cc3c(cc2C(c2ccc([N+](=O)[O-])cc2F)=NN1)OCO3 [2,3-BDZ-3]
- Amplitude with compound (GluA1; [1]): 237±12 pA
- A/AI (current amplitude ratio without/with compound) (GluA1; [2]): 3.94±0.2
- t deact (weighted deactivation time constant) (GluA1; [3]): 2.4 ± 0.1 ms
- t des (weighted desensitization time constant) (GluA1; [4]): 2.1 ± 0.1 ms
- IC50 (GluA1; [5]): 5.75 µM
- IC50 (GluA1; [6]): 5.8 µM
- Amplitude, applying glutamate alone after compound (GluA1; [7]): 936±46 pA
- Amplitude with compound (GluA2/3; [1]): 130±12 pA
- A/AI (current amplitude ratio without/with compound) (GluA2/3; [2]): 4.08±0.3
- t deact (weighted deactivation time constant) (GluA2/3; [3]): 2.9 ± 0.2 ms
- t des (weighted desensitization time constant) (GluA2/3; [4]): 2.5 ± 0.2 ms
- IC50 (GluA2/3; [5]): 5.75 µM
- IC50 (GluA2/3; [6]): 5.76 µM
- Amplitude, applying glutamate alone after compound (GluA2/3; [7]): 525±22 pA
- Effect on desensitization rate (AMPA receptor subunits): no change
- Reduction in AMPAR subunit currents (AMPA receptor subunits): 4 fold
- Effect on deactivation rate of the AMPAR subunits examined (AMPA receptor subunits; 1 ms glutamate): no change
- Amplitude with compound (GluA2; [1]): 326±17 pA
- A/AI (current amplitude ratio without/with compound) (GluA2; [2]): 4.16±0.2
- t deact (weighted deactivation time constant) (GluA2; [3]): 2.8 ± 0.1 ms
- t des (weighted desensitization time constant) (GluA2; [4]): 2.3 ± 0.1 ms
- IC50 (GluA2; [5]): 5.75 µM
- IC50 (GluA2; [6]): 5.74 µM
- melting point: 182 to 184 °C
- Amplitude with compound (GluA1/2; [1]): 144±11 pA
- A/AI (current amplitude ratio without/with compound) (GluA1/2; [2]): 3.98±0.2
- t deact (weighted deactivation time constant) (GluA1/2; [3]): 2.8 ± 0.2 ms
- t des (weighted desensitization time constant) (GluA1/2; [4]): 4.9 ± 0.3 ms
- IC50 (GluA1/2; [5]): 5.75 µM
- IC50 (GluA1/2; [6]): 5.79 µM
- Amplitude, applying glutamate alone after compound (GluA1/2; [7]): 569±43 pA
